Experimental data as given in PMC8072159, “5-Bis-(2,6-difluoro-benzylidene) Cyclopentanone Acts as a Selective 11β-Hydroxysteroid Dehydrogenase one Inhibitor to Treat Diet-Induced Nonalcoholic Fatty Liver Disease in Mice” (Frontiers in Pharmacology, 2021).
Entries after “also recorded” stand apart in the source; their conditions may differ.

Test system: HFD-induced NAFLD mice
Experiment: HFD-induced NAFLD mouse model, WZS08 by gavage for 100 days
Format: in vivo
Settings: for Body weight / Dorsal adipose weight / Epididymal adipose weight / Mesenteric adipose weight / Thymic adipose weight / Total hepatic weight: mean ± SEM
Experimental: The KM mice were randomly divided into six groups, including a regular chow (Group C), HFD (Group M) as a model control group, HFD supplemented with various doses of WZS08, 1 (Group M + W1), 2 (Group M + W2), and 4 (Group + W4) mg/kg, 20 mice per group. Mice were housed five animals per cage. Mice were maintained at a constant temperature (25 ± 3°C) for a 12-h light-dark cycle with free access to food and water. After a week of diet adaptation, the mice were fed with WZS08 dissolved in 1% sodium carboxymethyl cellulose (CMC-Na) or 1% CMC-Na for 100 days alone. Each mouse was gavaged daily with 0.5 ml vehicle (1% CMC-Na) or drug in 1%CMC-Na. By the end of the treatment, the mice were killed by CO2, and the weights of body, liver, epididymal fat, mesenteric fat, and dorsal fat were measured. […]
Quantitative Real-Time Polymerase Chain Reaction
Total RNA was isolated from mouse liver using Trizol kit according to the manufacturer’s instruction. To reduce genomic DNA contamination, total RNAs were treated with ribonuclease-free deoxyribonuclease I (Thermo Fisher Scientific, Waltham, MA, United States) for 1 h at 37°C. 1 μg RNA was used to synthesize the first strand cDNA by reverse transcription kit. qPCR was carried out using SYBR GREEN as an indicator using Bio-Rad real time PCR system. The standard curve method was adopted as previously described ([Lv et al., 2019]). The Ct values were recorded after a series of diluted standards of mouse liver cDNAs, and the linear equation of Ct values vs. logarithm [dilution of standards] was generated, and the concentration of the target mRNA was calculated according to their Ct value. The result was normalized to Gapdh (encoding GAPDH) and Rps16 as the internal controls. The mRNA levels of Acs2 (encoding acetyl-CoA synthetase2), Hsd11b1 (encoding 11β–HSD1), Ldlr (encoding LDLR), Plin2 (encoding PLIN2), and Plin3 (encoding PLIN3) were evaluated. There were no changes in Gapdh and Rps16 mRNA levels between groups and the test mRNA levels were adjusted to Gapdh. Primer information is listed in Supplementary Table S1.
Measurement of Serum Insulin and Corticosterone Levels and Blood Lipid Levels
On the last day of the experiment, the mice were fasted for 6 h (with free access to drinking water), and then blood and tissues were sampled. Blood samples were collected. The blood sample was centrifuged at 5000 rpm for 10 min to collect the serum, and the serum was frozen at -40°C until use. According to standard clinical protocols, the levels of serum glucose, low-density lipoprotein (LDL), high-density lipoprotein (HDL), total cholesterol, and triglyceride (TG) were measured using Hitachi 7600 biochemical analyzer (Hitachi, Japan). In addition, serum insulin and corticosterone levels were evaluated using the ultrasensitive mouse insulin ELISA kit (CrystalChem, IL, USA) and the commercially available corticosterone ELISA kit (Abnova, Taiwan, China) according to the manufacturers’ instructions.
Protein Expression Analysis
Total hepatic protein extract was obtained as previously described ([Lazaro et al., 2013]). The protein was separated by SDS–PAGE and transferred to a 0.2 μm PVDF membrane. The primary antibodies used were: 11β-HSD1 (rabbit polyclonal antibody, Abcam, catalog # ab39364; being blocked with 11β-HSD1 peptide, #ab101097, San Francisco, CA), ACS2 (Abcam, catalog # ab229958, San Francisco, CA, United States), and β-actin (ACTB, Cell signaling, Danvers, MA, United States). Goat anti-rabbit HRP was used as a secondary antibody. Finally, chemiluminescence emitted by the immunoreactive protein was detected by an ECL advance agent, and visualized with a MicroChemi Imaging system and qualified by a densitometry using AlphaEaseFC (ProteinSample, CA, United States). Relative protein levels were normalized by ACTB.
Before hematoxylin and eosin (HE) staining, the livers of KM mice were fixed in 10% formalin, dehydrated, and embedded in paraffin, as previously described ([Andres-Manzano et al., 2015]). […]

[1] = HFD mice, 4 mg/kg (M + W4), 100 days
[2] = HFD mice, 1, 2, and 4 mg/kg, vs Group M, qPCR
[3] = HFD plus 1 mg/kg WZS08 (M + W1), 100 days
[4] = HFD plus 2 mg/kg WZS08 (M + W2), 100 days
[5] = HFD plus 4 mg/kg WZS08 (M + W4), 100 days

O=C1/C(=C/c2c(F)cccc2F)CC/C1=C\c1c(F)cccc1F [WZS08, (2E,5E)-2,5-bis(2,6-difluorobenzylidene) Cyclopentanone]
Fabp4 expression (HFD mice, 1 mg/kg, 100 days): up-regulated | hepatic fat ratio (HFD mice, 1 mg/kg, 100 days): significantly reduced | serum cholesterol (HFD mice, 1 mg/kg, 100 days): significantly reduced | serum low-density lipoprotein (HFD mice, 1 mg/kg, 100 days): significantly reduced | serum triglycerides (HFD mice, 1 mg/kg, 100 days): significantly reduced | serum HDL level [1]: greatly reduced | serum LDL level [1]: greatly reduced | serum cholesterol level [1]: greatly reduced | serum triglyceride level [1]: greatly reduced | insulin index (HFD mice, 4 mg/kg, 100 days, vs HFD group): significantly lowered | serum insulin levels (HFD mice, 4 mg/kg, 100 days, vs HFD group, 4 mg/kg): significantly lowered; also recorded: completely reduced it to control level | liver lipid content (HE staining) (HFD mice, 1, 2, 4 mg/kg): remarkably reduced | insulin resistance (HOMA-IR) (HFD mice, 1, 2, 4 mg/kg, 100 days): dose-dependently reduced | body weight changes (HFD mice, 1, 2, 4 mg/kg, 100 days, vs HFD control): dose-dependently reduced | Acs2 expression in liver [2]: up-regulated | Plin2 expression in liver [2]: down-regulated | morphology of the non-alcoholic fatty liver (HFD mice, 100 days): significantly improved | liver fat content (HFD mice, doses of 2 and 4 mg/kg): significantly decreased | Plin2 expression (HFD mice, liver, 1 mg/kg, 100 days): down-regulated | Body weight [3]: 52.46 ± 1.28 g | Dorsal adipose weight [3]: 0.68 ± 0.092 g | Epididymal adipose weight [3]: 2.05 ± 0.230 g | Mesenteric adipose weight [3]: 0.64 ± 0.074 g | Thymic adipose weight [3]: 0.08 ± 0.01 g | Total hepatic weight [3]: 2.79 ± 0.12 g | Body weight [4]: 50.25 ± 1.01 g | Dorsal adipose weight [4]: 0.54 ± 0.049 g | Epididymal adipose weight [4]: 1.52 ± 0.138 g | Mesenteric adipose weight [4]: 0.55 ± 0.043 g | Thymic adipose weight [4]: 0.06 ± 0.00 g | Total hepatic weight [4]: 2.48 ± 0.06 g | Body weight [5]: 49.00 ± 1.22 g | Dorsal adipose weight [5]: 0.55 ± 0.070 g | Epididymal adipose weight [5]: 1.54 ± 0.20 g | Mesenteric adipose weight [5]: 0.54 ± 0.048 g | Thymic adipose weight [5]: 0.077 ± 0.00 g | Total hepatic weight [5]: 2.29 ± 0.06 g | blood glucose (HFD-treated mice, oral administration): did not show significant changes
